Measurements from patent EP4759821A1, “CITRULLINATED SETDB1 POLYPEPTIDE AND USE THEREOF IN DIAGNOSIS OF RHEUMATOID ARTHRITIS” (Xiamen University, priority 2023, dated 2025).
Non-standard residues stand in square brackets, D forms with d. No end group written: not given here. Cit = NC(=O)NCCC[C@H](N)C(=O)O

System: autoantibodies against cit-4 (anti-citrullinated SETDB1 antibody)
Experiment: indirect ELISA of autoantibodies against biotin-conjugated citrullinated short polypeptides in serum
Format: binding, human
Method: The autoantibody expression levels of the citrulline markers were detected using an indirect ELISA method. In short, biotin-conjugated short polypeptides were first coated onto PABC plates at a concentration of 50 ng/well. After coating, serum from 24 rheumatoid arthritis (RA) patients and 24 healthy subjects (HC) were diluted 10-fold as primary antibodies and incubated for 30 minutes. HRP-labeled goat anti-human IgG (GAH-HRP) was used as secondary antibody, incubation was performed for 30 minutes, and color development and reading were finally carried out.
The expression level of citrulline marker autoantibodies in patients with rheumatoid arthritis was detected using an indirect ELISA method (see Example 1 for details). In addition, anti-citrullinated peptide antibody (CCP2) was used as a control. […]
The cit-4 antibody level was detected in a CCP2-negative patient population using an indirect ELISA method (see Example 1 for details).
The levels of citrullinated SETDB1 autoantibodies in the serum of patients with different autoimmune diseases (RA rheumatoid arthritis, SLE systemic lupus erythematosus, PSS primary Sjögren's syndrome, and SSc scleroderma) were detected using an indirect ELISA method (see Example 1 for details). […]

## NPLLVPLLYDFXXMTAXXXVNXK (NPLLVPLLYDF[Cit][Cit]MTA[Cit][Cit][Cit]VN[Cit]K; also: conjugated with biotin) [cit-4]
Example 1, Fig. 1A, serum of 24 RA patients vs 24 healthy subjects (HC), diluted 10-fold, peptide coated 50 ng/well, GAH-HRP secondary antibody
  level of autoantibodies in rheumatoid arthritis: significantly elevated
Example 4, Fig. 4A, serum of patients with different autoimmune diseases (RA, SLE, PSS, SSc)
  level of citrullinated SETDB1 autoantibodies: the highest in rheumatoid arthritis
